Laboratory results taken from patent US20040116531A1, “Water-free skin care formulations comprising micronized urea and method of manufacturing the same” (priority 2000, published 2004).

Test system: human healthy skin
Conditions: in vivo
Protocol: The study was designed as a single center, randomized, double-blind (investigator-masked) study with intraindividual comparison of treatments to evaluate the cutaneous tolerance of repeated applications of the medical skin care formulations applied under occlusion during 21 days and started with 25 healthy volunteers of either sex between 18 and 65 years old meeting specific inclusion/exclusion criteria.
The volunteers were subjected to an occlusive application of 50 μl of each test formulation on designated test fields on their mid back for 21 consecutive days. The occlusive dressings were removed after 23 hours, and the irritation was evaluated one hour later using a 6-point-score (irritation score):
A Cumulative Irritancy Index (C.I.I.) was calculated for each test preparation for each subject as follows:
C.I.I.=Sum of irritation scores in one individual/number of readings An ‘adjusted C.I.I.’ (C.I.I.*) was calculated by subtracting scores caused by sensitization reactions.
Furthermore, a Mean Cumulative Irritation Index (M.C.I.I.) was calculated for each product by averaging individual C.I.I.s across subjects as follows:
M.C.I.I.=Sum of irritation scores in all individuals/number of readings An ‘adjusted M.C.I.I.’ (M.C.I.I.*) was calculated by subtracting scores caused by sensitization reactions.

mean scores during the course of the study: no remarkable differences or tendencies
Substance: white soft paraffin
